Reference: US20260193271A1, “PAN-KRAS INHIBITOR COMPOUND” (ADLAI NORTYE BIOPHARMA CO., LTD., priority 2022, published 2026)

Tests used:
SW480 (G12V) = assay: In vitro cell proliferation inhibition test (CellTiter-Glo), SW480; type: cell-based; conditions: SW480 colon cell line, KRAS (p.G12V), 72 h co-incubation
Description: (§1) Test Example 1: In Vitro Cell Proliferation Inhibition Test
(§2) Due to the diversity of RAS mutations and in order to evaluate the activity of compounds in different RAS mutation cell lines, we selected KRAS^WT, KRAS^G12C, KRAS^G12D, KRAS^G12V and BRAF mutation cell lines (see the table below) for in vitro activity evaluation and screening of compounds.
(§3) Protocol: CellTiter-Glo® Cell Luminescent Viability Assay (Promega)
(§4) According to the doubling time of different cell lines, different numbers of cells (1000-5000 cells/well) were seeded in 96-well plates containing 180 μl of corresponding culture medium and cultured overnight in a cell culture incubator at 37° C. with 5% CO2. On the second day, the test compound was pre-diluted 3-fold with culture medium, with the highest concentration being 100 μM, for a total of 10 concentration gradients; then 20 μl of culture medium containing different concentrations of the compound was added to the cells in the 96-well plate to ensure that the final concentration of the compound was up to 10 μM, with 10 concentration gradients of 3-fold dilution. After the cells and compounds were co-incubated for 72 h, the 96-well plate was removed from the incubator and equilibrated at room temperature for 30 min. Then, 25 μl of CellTiter-Glo® Reagent was added to each well and mixed thoroughly. The mixture was incubated at room temperature for 10 min, and then 100 μl of the sample was transferred to a white 96-well plate (OptiPlate™-96, PerkinElmer). The […] signal value was read using a multi-function microplate reader (SpectraMax® i3x, Molecular devices). The signal values were then standardized, and the curve was fitted using a four-parameter regression equation to calculate the half maximal inhibitory concentration (IC50) of the compound on the cell line.

AsPC-1 (G12D) = assay: In vitro cell proliferation inhibition test (CellTiter-Glo), AsPC-1; type: cell-based; conditions: KRAS (p.G12D), 72 h co-incubation
Description: as §1, §2, §3, §4

[1] = Homo sapiens, ASPC1, AsPC-1 pancreas cell line

Compound | IC50 (SW480 (G12V); Homo sapiens) [nM] | IC50 (AsPC-1 (G12D); [1]) [nM] | IC50 (SW480 (G12V)) [nM] | IC50 (AsPC-1 (G12D); AsPC-1 pancreas cell line) [nM]
CCn1c(-c2cc(-c3ccc(CN4CCOCC4)cc3)cnc2[C@H](C)OC)c2c3cc(ccc31)-c1csc(n1)C[C@H](NC(=O)[C@H]1[C@H](C)[C@@H]1C)C(=O)N1CCC[C@H](N1)C(=O)OCC(C)(C)C2 (atropisomer, axis not shown) [Compound 1, (1r,2R,3S)-N-((6^3S,4S,Z)-1^1-ethyl-1^2-(2-((S)-1-methoxyethyl)-5-(4-(morpholinomethyl)phenyl)pyridin-3-yl)-10,10-dimethyl-5,7-dioxo-6^1,6^2,6^3,6^4,6^5,6^6-hexahydro-1^1H-8-oxa-2(4,2)-thiazola-1(5,3)-indola-6(1,3)-pyridazinacycloundecaphane-4-yl)-2,3-dimethylcyclopropane-1-carboxamide] | 1.3 | 1.1 |  | 
CO[C@@H](C)c1ncc(-c2cnc(CN3CCOCC3)nc2)cc1-c1c2c3cc(ccc3n1CC(F)(F)F)-c1csc(n1)C[C@H](NC(=O)[C@H]1[C@H](C)[C@@H]1C)C(=O)N1CCC[C@H](N1)C(=O)OCC(C)(C)C2 (atropisomer, axis not shown) [Compound 44, (1r,2R,3S)-N-((6^3S,4S,Z)-1^2-(2-((S)-1-methoxyethyl)-5-(2-(morpholinomethyl)pyrimidin-5-yl)pyridin-3-yl)-10,10-dimethyl-5,7-dioxo-1^1-(2,2,2-trifluoroethyl)-6^1,6^2,6^3,6^4,6^5,6^6-hexahydro-1^1H-8-oxa-2(4,2)-thiazola-1(5,3)-indola-6(1,3)-pyridazinacycloundecaphane-4-yl)-2,3-dimethylcyclopropane-1-carboxamide] | 0.35 | 0.26 |  | 
(1S,2S)-N-((6^3S,4S,Z)-1^1-ethyl-1^2-(2-((S)-1-methoxyethyl)-5-(1-((R)-1-methylpyrrolidin-3-yl)-1H-pyrazol-4-yl)pyridin-3-yl)-10,10-dimethyl-5,7-dioxo-6^1,6^2,6^3,6^4,6^5,6^6-hexahydro-1^1H-8-oxa-2(4,2)-thiazola-1(5,3)-indola-6(1,3)-pyridazinacycloundecaphane-4-yl)-2-methylcyclopropane-1-carboxamide [Compound 16′] |  |  | 265 | 2280
CCn1c(-c2cc(-c3cc(C4CCN(C)CC4)on3)cnc2[C@H](C)OC)c2c3cc(ccc31)-c1csc(n1)C[C@H](NC(=O)[C@H]1C[C@@H]1C)C(=O)N1CCC[C@H](N1)C(=O)OCC(C)(C)C2 (atropisomer, axis not shown) [Compound 30, (1S,2S)-N-((6^3S,4S,Z)-1^1-ethyl-1^2-(2-((S)-1-methoxyethyl)-5-(5-(1-methylpiperidin-4-yl)isoxazol-3-yl)pyridin-3-yl)-10,10-dimethyl-5,7-dioxo-6^1,6^2,6^3,6^4,6^5,6^6-hexahydro-1^1H-8-oxa-2(4,2)-thiazola-1(5,3)-indola-6(1,3)-pyridazinacycloundecaphane-4-yl)-2-methylcyclopropane-1-carboxamide] | 0.44 | 0.58 |  | 
CCn1c(-c2cc(-c3ccc4c(c3)CN(C)C4)cnc2[C@H](C)OC)c2c3cc(ccc31)-c1csc(n1)C[C@H](NC(=O)[C@H]1C[C@@H]1C)C(=O)N1CCC[C@H](N1)C(=O)OCC(C)(C)C2 (atropisomer, axis not shown) [Compound 2, (1S,2S)-N-((6^3S,4S,Z)-1^1-ethyl-1^2-(2-((S)-1-methoxyethyl)-5-(2-methylisoindolin-5-yl)pyridin-3-yl)-10,10-dimethyl-5,7-dioxo-6^1,6^2,6^3,6^4,6^5,6^6-hexahydro-1^1H-8-oxa-2(4,2)-thiazola-1(5,3)-indola-6(1,3)-pyridazinacycloundecaphane-4-yl)-2-methylcyclopropane-1-carboxamide] | 670 | 21 |  | 
CCn1c(-c2cc(-c3cc([C@@H]4COCCN4C)on3)cnc2[C@H](C)OC)c2c3cc(ccc31)-c1csc(n1)C[C@H](NC(=O)[C@H]1[C@H](C)[C@@H]1C)C(=O)N1CCC[C@H](N1)C(=O)OCC(C)(C)C2 (atropisomer, axis not shown) [Compound 32, (1r,2R,3S)-N-((6^3S,4S,Z)-1^1-ethyl-1^2-(2-((S)-1-methoxyethyl)-5-(5-((S)-4-methylmorpholin-3-yl)isoxazol-3-yl)pyridin-3-yl)-10,10-dimethyl-5,7-dioxo-6^1,6^2,6^3,6^4,6^5,6^6-hexahydro-1^1H-8-oxa-2(4,2)-thiazola-1(5,3)-indola-6(1,3)-pyridazinacycloundecaphane-4-yl)-2,3-dimethylcyclopropane-1-carboxamide] | 1.6 | 1.3 |  | 
CCn1c(-c2cc(-c3cc([C@H]4CCCN4C)on3)cnc2[C@H](C)OC)c2c3cc(ccc31)-c1csc(n1)C[C@H](NC(=O)[C@H]1C[C@@H]1C)C(=O)N1CCC[C@H](N1)C(=O)OCC(C)(C)C2 (atropisomer, axis not shown) [Compound 24, (1S,2S)-N-((6^3S,4S,Z)-1^1-ethyl-1^2-(2-((S)-1-methoxyethyl)-5-(5-((R)-1-methylpyrrolidin-2-yl)isoxazol-3-yl)pyridin-3-yl)-10,10-dimethyl-5,7-dioxo-6^1,6^2,6^3,6^4,6^5,6^6-hexahydro-1^1H-8-oxa-2(4,2)-thiazola-1(5,3)-indola-6(1,3)-pyridazinacycloundecaphane-4-yl)-2-methylcyclopropane-1-carboxamide] | 19 | 26 |  | 

More lines, now with the values ahead:

IC50 (SW480 (G12V); Homo sapiens) [nM] | IC50 (AsPC-1 (G12D); [1]) [nM] | IC50 (SW480 (G12V)) [nM] | IC50 (AsPC-1 (G12D); AsPC-1 pancreas cell line) [nM] | Compound
117 | 42 |  |  | CCn1c(-c2cc(-c3cc(CNC)on3)cnc2[C@H](C)OC)c2c3cc(ccc31)-c1csc(n1)C[C@H](NC(=O)[C@H]1C[C@@H]1C)C(=O)N1CCC[C@H](N1)C(=O)OCC(C)(C)C2 (atropisomer, axis not shown) [Compound 23, (1S,2S)-N-((6^3S,4S,Z)-1^1-ethyl-1^2-(2-((S)-1-methoxyethyl)-5-(5-((methylamino)methyl)isoxazol-3-yl)pyridin-3-yl)-10,10-dimethyl-5,7-dioxo-6^1,6^2,6^3,6^4,6^5,6^6-hexahydro-1^1H-8-oxa-2(4,2)-thiazola-1(5,3)-indola-6(1,3)-pyridazinacycloundecaphane-4-yl)-2-methylcyclopropane-1-carboxamide]
 |  | 319 | 814 | (1S,2S)-N-((6^3S,4S,Z)-1^1-ethyl-1^2-(6′-((S)-1-methoxyethyl)-5-(morpholinomethyl)-[2,3′-bipyridin]-5′-yl)-10,10-dimethyl-5,7-dioxo-6^1,6^2,6^3,6^4,6^5,6^6-hexahydro-1^1H-8-oxa-2(4,2)-thiazola-1(5,3)-indola-6(1,3)-pyridazinacycloundecaphane-4-yl)-2-methylcyclopropane-1-carboxamide [Compound 12′]
12 | 1.6 |  |  | CCn1c(-c2cc(-c3cnc(OC4CCN(C)CC4)nc3)cnc2[C@H](C)OC)c2c3cc(ccc31)-c1csc(n1)C[C@H](NC(=O)[C@H]1C[C@@H]1C)C(=O)N1CCC[C@H](N1)C(=O)OCC(C)(C)C2 (atropisomer, axis not shown) [Compound 60, (1S,2S)-N-((6^3S,4S,Z)-1^1-ethyl-1^2-(2-((S)-1-methoxyethyl)-5-(2-((1-methylpiperidin-4-yl)oxy)pyrimidin-5-yl)pyridin-3-yl)-10,10-dimethyl-5,7-dioxo-6^1,6^2,6^3,6^4,6^5,6^6-hexahydro-1^1H-8-oxa-2(4,2)-thiazola-1(5,3)-indola-6(1,3)-pyridazinacycloundecaphane-4-yl)-2-methylcyclopropane-1-carboxamide]
1.2 | 0.9 |  |  | CCn1c(-c2cc(-c3ncc(CN4CCS(=O)(=O)CC4)cn3)cnc2[C@H](C)OC)c2c3cc(ccc31)-c1csc(n1)C[C@H](NC(=O)[C@H]1C[C@@H]1C)C(=O)N1CCC[C@H](N1)C(=O)OCC(C)(C)C2 (atropisomer, axis not shown) [Compound 51, (1S,2S)-N-((6^3S,4S,Z)-1^2-(5-(5-((1,1-dioxidothiomorpholino)methyl)pyrimidin-2-yl)-2-((S)-1-methoxyethyl)pyridin-3-yl)-1^1-ethyl-10,10-dimethyl-5,7-dioxo-6^1,6^2,6^3,6^4,6^5,6^6-hexahydro-1^1H-8-oxa-2(4,2)-thiazola-1(5,3)-indola-6(1,3)-pyridazinacycloundecaphane-4-yl)-2-methylcyclopropane-1-carboxamide]
30 | 68 |  |  | CCn1c(-c2cc(-c3cnc(CN4CCN(CCOC)CC4)nc3)cnc2[C@H](C)OC)c2c3cc(ccc31)-c1csc(n1)C[C@H](NC(=O)[C@H]1C[C@@H]1C)C(=O)N1CCC[C@H](N1)C(=O)OCC(C)(C)C2 (atropisomer, axis not shown) [Compound 58, (1S,2S)-N-((6^3S,4S,Z)-1^1-ethyl-1^2-(2-((S)-1-methoxyethyl)-5-(2-((4-(2-methoxyethyl)piperazin-1-yl)methyl)pyrimidin-5-yl)pyridin-3-yl)-10,10-dimethyl-5,7-dioxo-6^1,6^2,6^3,6^4,6^5,6^6-hexahydro-1^1H-8-oxa-2(4,2)-thiazola-1(5,3)-indola-6(1,3)-pyridazinacycloundecaphane-4-yl)-2-methylcyclopropane-1-carboximide]
